# Measurements: patent US12617788B2, “Bridged bicyclic compounds as BTK inhibitors” (Beijing InnoCare Pharma Tech Co., Ltd., priority 2020, dated 2026)
# What was measured:
# [1] = target: T1, human-derived recombinant BTK protein (Homo sapiens, UniProt Q06187); assay: BTK activity inhibition assay (HTRF kinase assay); format: biochemical; settings: 40 μM ATP
# T1 construct: purchased Carna Biosciences 08-180
# Description: In vitro kinase assay was used to evaluate the effects of compounds of the present invention on BTK activity (Table 1).
# By using the homogeneous time-resolved fluorescence (HTRF) kinase detection kit (Cisbio, catalog number 62TK0PEC), the enzymatic activity of BTK is determined by detecting the phosphorylation level of the substrate in the kinase reaction. […]
# (§1) Add 4 μL test compound solution and 2 μL kinase reaction solution to a 384-well detection plate (Corning, catalog number 3674), mix well and incubate at room temperature for 15 minutes; add 4 μL substrate reaction solution and incubate for 50 minutes; add 10 μL detection buffer, mix well and stand for 60 minutes; detect signal at 620 nm and 665 nm using an Envision plate reader (Perkin Elmer). The signal value (absorbance at 665 nm/absorbance at 620 nm) is positively correlated with the degree of phosphorylation of the substrate, thereby detecting the kinase activity of BTK. […] The inhibition curve is plotted and the corresponding IC50 value of the test compound is calculated using XLfit software (ID Business Solutions Ltd., UK).
# [2] = target: T2, human recombinant BTK C481S protein (Homo sapiens, UniProt Q06187, C481S); assay: BTK C481S activity inhibition assay (HTRF kinase assay); format: biochemical; settings: 35 μM ATP
# T2 construct: made in house
# Description: In vitro kinase assay was used to evaluate the effects of compounds of the present invention on BTK C481S activity (Table 1).
# By using the homogeneous time-resolved fluorescence (HTRF) kinase detection kit (Cisbio, catalog number 62TK0PEC), the enzymatic activity of BTK C481S is determined by detecting the phosphorylation level of the substrate in the kinase reaction. […]
# as §1, with “BTK C481S.” for “BTK.”
# [3] = Brain penetration activity test in rats; format: in vivo; settings: for Brain penetration (result in words): male Sprague Dawley rats, oral 5 mg/kg; for Kp at 8 h: male, Sprague Dawley, rat, brain tissue homogenate / plasma, po, 5 mg/kg, AUCbrain/AUCplasma, samples at 1, 2, 4 and 8 hours
# Description: “CSF/plasma ratio (Kp, CSF)” refers to the ratio of a compound concentration in cerebrospinal fluid (CSF) vs. in plasma. The ability of a compound to cross blood-brain barrier (BBB) is assessed by measuring its concentrations in CSF and plasma in rodents, and determining the ratio (Kp, CSF).
# Compound A or B in a 0.5 mg/mL solution containing 5% N,N-dimethylacetamide+10% solutol+85% saline was orally administered to twelve male Sprague Dawley rats at a dose of 5 mg/kg. Samples of plasma, brain tissue homogenate (for measuring Kp, brain) and cerebrospinal fluid (for measuring Kp, CSF) were collected at 1, 2, 4 and 8 hours after administration (from three animals at each time point).
# The concentrations of the compound in plasma, brain tissue homogenate, and CSF were quantified by LC-MS/MS using an API-4500 mass spectrometer, respectively. The limit of quantification (LOQ) of analysis was 1 ng/mL. The pharmacokinetic (PK) parameters were calculated by the non-compartmental method using WinNonlin. Each of Kp, brain and Kp, CSF was calculated as AUCbrain/AUCplasma and AUCCSF/AUCplasma, respectively.
# T2 sequence (Q06187 whole entry C481S): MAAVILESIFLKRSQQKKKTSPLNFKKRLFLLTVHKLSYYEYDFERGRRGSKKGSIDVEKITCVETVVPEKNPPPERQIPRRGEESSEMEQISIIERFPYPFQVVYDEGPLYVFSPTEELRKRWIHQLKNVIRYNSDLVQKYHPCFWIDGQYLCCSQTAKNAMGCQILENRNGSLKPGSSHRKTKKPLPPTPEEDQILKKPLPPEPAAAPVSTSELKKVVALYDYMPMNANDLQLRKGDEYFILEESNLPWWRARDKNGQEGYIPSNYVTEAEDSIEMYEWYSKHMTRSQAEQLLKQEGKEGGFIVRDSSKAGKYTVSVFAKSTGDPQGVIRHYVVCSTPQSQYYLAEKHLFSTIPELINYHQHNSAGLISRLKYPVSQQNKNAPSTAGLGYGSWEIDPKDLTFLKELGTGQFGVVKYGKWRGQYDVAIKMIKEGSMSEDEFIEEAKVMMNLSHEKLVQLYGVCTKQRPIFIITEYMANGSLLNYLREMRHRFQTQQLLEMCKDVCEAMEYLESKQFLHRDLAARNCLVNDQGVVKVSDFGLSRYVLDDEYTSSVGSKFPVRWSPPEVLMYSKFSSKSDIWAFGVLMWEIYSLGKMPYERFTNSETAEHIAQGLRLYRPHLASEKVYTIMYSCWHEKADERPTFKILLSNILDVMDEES
# T1 sequence (Q06187 whole entry): as the sequence (Q06187 whole entry C481S) above, with S481C counted along it
IC50 [1] [nM],IC50 [2] [nM],Brain penetration (result in words) [3],Kp at 8 h [3],SMILES
0.7,1.3,non-brain penetrants,0.0355,"COc1ccc(F)cc1C(=O)NCc1ccc(-c2nc(C34CCC(C(=O)O)(CC3)CC4)n3ncnc(N)c23)cc1 [Compound A, 4-(4-amino-5-(4-((5-fluoro-2-methoxybenzamido)methyl)phenyl)imidazo[5,1-f][1,2,4]triazin-7-yl)bicyclo[2.2.2]octane-1-carboxylic acid]"
1,1.2,non-brain penetrants,0.0315,"COc1ccc(F)cc1C(=O)NCc1ccc(-c2nc(C34CCC(C(=O)N5CCOCC5)(CC3)CC4)n3ncnc(N)c23)cc1 [Compound B, N-(4-(4-amino-7-(4-(morpholine-4-carbonyl)bicyclo[2.2.2]octan-1-yl)imidazo[5,1-f][1,2,4]triazin-5-yl)benzyl)-5-fluoro-2-methoxybenzamide]"
